Reference: publication PMC6896172, “Successful Targeting of the Warburg Effect in Prostate Cancer by Glucose-Conjugated 1,4-Naphthoquinones” (Cancers, 2019)

System: 22Rv1 cells
Experiment: Global proteome analysis (LC-MS/MS, DIA) of differentially expressed proteins
Format: cell-based, human
Experimental: 22Rv1 cells were seeded in T75 culture bottles (4 × 10^6 cells/bottle in 20 mL/bottle), treated for 48 h with the 5 µM of compound 11 or vehicle (DMSO), harvested by scratching, washed twice with ice-cold PBS and flash-frozen. Cells were lysed and sonicated. The protein extracts were then heat-denaturated, reduced, alkylated and digested by trypsin. Peptides were chromatographically separated using full recovery autosampler vials and a nano-UPLC system (Acquity, Waters Corporation, Milford, MS, USA), coupled via electrospray ionization (ESI) to a tandem mass spectrometer equipped with a quadrupole and an orbitrap (QExactive, Thermo Fisher Scientific, Bremen, Germany), using MS/MS mode in data dependent acquisition (DDA) and data independent acquisition (DIA). The peptides, analyzed with DDA-LC-MS/MS, were identified with the search engine Sequest, integrated in the Proteome Discoverer software version 2.0 (Thermo Fischer Scientific) using the human Uniprot protein database (EMBL; Hinxton Cambridge, UK, release December 2018). […] For the details of sample preparation and proceeding, data acquisition and analysis see the Supplementary information. […]
serum (FBS, Invitrogen) and 1% penicillin/streptomycin (Invitrogen)). […]
Cell lines were lysed in 100 mM triethylammonium bicarbonate and 1% w/v sodium deoxycholate buffer followed by probe sonication to destroy polynucleotides and heat induce protein denaturing at 99 °C for 5 min. Protein concentrations were estimated with a bicinchonic acid (BCA) protein assay (Thermo Fisher Scientific, Bremen, Germany). 20 µg of protein were reduced in presence of 10 mM dithiotreithol (Sigma Aldrich) for 30 min at 60 °C followed by cysteine alkylation with 20 mM iodo acetamide (Sigma Aldrich) for 30 min at 37 °C in the dark and enzymatic degradation with sequencing grade trypsin (Promega) over night at 37 °C. Digestion was quenched with 1% formic acid (FA), precipitated sodium deoxycholate removed by centrifugation for 5 min at 14,000 g and the supernatant was dried in a vacuum centrifuge.
LC-MS/MS in Data Dependent and Data Independent Mode
Samples were resuspended in 0.1% FA and transferred into a full recovery autosampler vial (Waters). Chromatographic separation was achieved on a nano -UPLC system (Acquity, Waters Corporation, Milford, MS, USA) with a two-buffer-system (buffer A: 0.1% FA in water, buffer B:
0.1% FA in Acetonitrile (ACN), both at pH = 3). Attached to the UPLC was a reversed -phase peptide trapping column (Symmetry C18, 180 µm × 20 mm, 100 Å pore size, 5 µm particle size) for desalting, followed by a reversed-phase capillary separation of the tryptic peptides (BEH C18; 75 µm × 200 mm, 130 Å pore size, 1.7 µm particle size), using a 60 min gradient with increasing ACN concentration from 2–30% ACN. The eluting peptides were analyzed on a quadrupole-orbitrap mass spectrometer (QExactive, Thermo Fisher Scientific, Bremen, Germany) in data dependent acquisition (DDA) and data independent acquisition (DIA) for quantification.
In DDA mode, one replicate of each cell line was randomly chosen and 1 µg per sample was used per LC-MS/MS run to build a reference spectral library used for data extraction of samples acquired in DIA mode. For DDA, the 12 most intense ions per precursor scan (1 × 10 6 ions, 70,000 Resolution, 120 ms fill time) were analyzed by MS/MS (HCD at 25 normalized collision energy, 1 × 105 ions, 17,500 Resolution, 50 ms fill time) in a range of 400–1300 m/z. A dynamic precursor exclusion of 20 s was used. For DIA, 1 µg of each sample was analyzed using a 30 sequential 20 Da fixed window method covering the mass range from 400 –1000 m/z. Per cycle, 2 precursor scans (1 × […]
28 normalized collision energy, 1 × 106 ions, 17,500 Resolution, 50 ms fill time) were performed.
After the first precursor scan, 15 MS/MS scans were performed covering the precursor mass range from 400–700 m/z followed by the second precursor scan and another 15 MS/MS scans ranging from […]
LC-MS/MS Data Processing and Analysis […]

SMILES: CC1(C)OC2OC(C(O)COC3=CC(=O)c4cccc(O)c4C3=O)C(O)C2O1 (stereo not shown) [Compound 11]
- Fold change (treated / control) (protein ARID2_HUMAN (Q68CP9)): 0.5698
- Fold change (treated / control) (protein BAZ1B_HUMAN (Q9UIG0)): 0.5909
- Fold change (treated / control) (protein BCAM_HUMAN (P50895)): 0.2614
- Fold change (treated / control) (protein BRD1_HUMAN (O95696)): 0.5595
- Fold change (treated / control) (protein CBX5_HUMAN (P45973)): 0.6078
- Fold change (treated / control) (protein CCD86_HUMAN (Q9H6F5)): 0.6454
- Fold change (treated / control) (protein CEBPZ_HUMAN (Q03701)): 0.6117
- Fold change (treated / control) (protein CHCH5_HUMAN (Q9BSY4)): 0.3153
- Fold change (treated / control) (protein CISD1_HUMAN (Q9NZ45)): 0.6534
- Fold change (treated / control) (protein CLUS_HUMAN (P10909)): 0.6547
- Fold change (treated / control) (protein CMTD1_HUMAN (Q86VU5)): 0.6695
- Fold change (treated / control) (protein COASY_HUMAN (Q13057)): 0.6716
- Fold change (treated / control) (protein COQ5_HUMAN (Q5HYK3)): 0.6569
- Fold change (treated / control) (protein CPSF7_HUMAN (Q8N684)): 0.5898
- Fold change (treated / control) (protein CRIP2_HUMAN (P52943)): 0.5784
- Fold change (treated / control) (protein CX6B1_HUMAN (P14854)): 0.5635
- Fold change (treated / control) (protein DDX21_HUMAN (Q9NR30)): 0.6203
- Fold change (treated / control) (protein DDX50_HUMAN (Q9BQ39)): 0.5638
- Fold change (treated / control) (protein DDX52_HUMAN (Q9Y2R4)): 0.5706
- Fold change (treated / control) (protein DESP_HUMAN (P15924)): 0.5753
- Fold change (treated / control) (protein DHX30_HUMAN (Q7L2E3)): 0.6273
- Fold change (treated / control) (protein DPOE3_HUMAN (Q9NRF9)): 0.6062
- Fold change (treated / control) (protein E2AK2_HUMAN (P19525)): 0.6134
- Fold change (treated / control) (protein EDF1_HUMAN (O60869)): 0.6154
- Fold change (treated / control) (protein EFTU_HUMAN (P49411)): 0.6185
- Fold change (treated / control) (protein ELOV5_HUMAN (Q9NYP7)): 0.5895
- Fold change (treated / control) (protein FAKD2_HUMAN (Q9NYY8)): 0.6444
- Fold change (treated / control) (protein FKB10_HUMAN (Q96AY3)): 0.625
- Fold change (treated / control) (protein FKBP8_HUMAN (Q14318)): 0.6712
- Fold change (treated / control) (protein GCN1_HUMAN (Q92616)): 0.6676
- Fold change (treated / control) (protein GRSF1_HUMAN (Q12849)): 0.6529
- Fold change (treated / control) (protein H2AY_HUMAN (O75367)): 0.6499
- Fold change (treated / control) (protein HSPB6_HUMAN (O14558)): 0.6349
- Fold change (treated / control) (protein IF4A1_HUMAN (P60842)): 0.6202
- Fold change (treated / control) (protein IMA1_HUMAN (P52292)): 0.5682
- Fold change (treated / control) (protein IQEC2_HUMAN (Q5JU85)): 0.6175
- Fold change (treated / control) (protein K2013_HUMAN (Q8IYS2)): 0.3342
- Fold change (treated / control) (protein LRWD1_HUMAN (Q9UFC0)): 0.5648
- Fold change (treated / control) (protein MAP2_HUMAN (P50579)): 0.6543
- Fold change (treated / control) (protein MCM3_HUMAN (P25205)): 0.6329
- Fold change (treated / control) (protein MCM4_HUMAN (P33991)): 0.5634
- Fold change (treated / control) (protein MCM5_HUMAN (P33992)): 0.5949
- Fold change (treated / control) (protein MCM6_HUMAN (Q14566)): 0.6119
- Fold change (treated / control) (protein MCM7_HUMAN (P33993)): 0.5855
- Fold change (treated / control) (protein MIPEP_HUMAN (Q99797)): 0.6023
- Fold change (treated / control) (protein MTA1_HUMAN (Q13330)): 0.5631
- Fold change (treated / control) (protein MTA2_HUMAN (O94776)): 0.5939
- Fold change (treated / control) (protein MYOME_HUMAN (Q5VU43)): 0.6576
- Fold change (treated / control) (protein NDUA3_HUMAN (O95167)): 0.3195
- Fold change (treated / control) (protein NDUAC_HUMAN (Q9UI09)): 0.6076
- Fold change (treated / control) (protein NDUV1_HUMAN (P49821)): 0.6332
- Fold change (treated / control) (protein NUDC_HUMAN (Q9Y266)): 0.6476
- Fold change (treated / control) (protein P4HTM_HUMAN (Q9NXG6)): 0.3114
- Fold change (treated / control) (protein PCNA_HUMAN (P12004)): 0.6578
- Fold change (treated / control) (protein PDS5A_HUMAN (Q29RF7)): 0.5949
- Fold change (treated / control) (protein PTMA_HUMAN (P06454)): 0.5745
- Fold change (treated / control) (protein RFC2_HUMAN (P35250)): 0.5826
- Fold change (treated / control) (protein RFC3_HUMAN (P40938)): 0.567
- Fold change (treated / control) (protein RFC4_HUMAN (P35249)): 0.5722
- Fold change (treated / control) (protein RFC5_HUMAN (P40937)): 0.6148
- Fold change (treated / control) (protein RL1D1_HUMAN (O76021)): 0.6228
- Fold change (treated / control) (protein RL4_HUMAN (P36578)): 0.563
- Fold change (treated / control) (protein RL10A_HUMAN (P62906)): 0.5923
- Fold change (treated / control) (protein RL13_HUMAN (P26373)): 0.6224
- Fold change (treated / control) (protein RL15_HUMAN (P61313)): 0.6202
- Fold change (treated / control) (protein RL19_HUMAN (P84098)): 0.3072
- Fold change (treated / control) (protein RL23A_HUMAN (P62750)): 0.5699
- Fold change (treated / control) (protein RL23_HUMAN (P62829)): 0.6468
- Fold change (treated / control) (protein RL27A_HUMAN (P46776)): 0.6191
- Fold change (treated / control) (protein RL34_HUMAN (P49207)): 0.2863
- Fold change (treated / control) (protein RL36_HUMAN (Q9Y3U8)): 0.6291
- Fold change (treated / control) (protein RM11_HUMAN (Q9Y3B7)): 0.6501
- Fold change (treated / control) (protein RM45_HUMAN (Q9BRJ2)): 0.6189
- Fold change (treated / control) (protein RM53_HUMAN (Q96EL3)): 0.5657
- Fold change (treated / control) (protein RM54_HUMAN (Q6P161)): 0.6079
- Fold change (treated / control) (protein RPA34_HUMAN (O15446)): 0.6508
- Fold change (treated / control) (protein RPAB5_HUMAN (P62875)): 0.5655
- Fold change (treated / control) (protein RS2_HUMAN (P15880)): 0.6402
- Fold change (treated / control) (protein RS6_HUMAN (P62753)): 0.6108
- Fold change (treated / control) (protein RS9_HUMAN (P46781)): 0.6218
- Fold change (treated / control) (protein S27A3_HUMAN (Q5K4L6)): 0.6711
- Fold change (treated / control) (protein SERC1_HUMAN (Q9NRX5)): 0.3307
- Fold change (treated / control) (protein SIGIR_HUMAN (Q6IA17)): 0.5907
- Fold change (treated / control) (protein SMCA5_HUMAN (O60264)): 0.6602
- Fold change (treated / control) (protein SMRC1_HUMAN (Q92922)): 0.6541
- Fold change (treated / control) (protein SPB1_HUMAN (Q8IY81)): 0.6134
- Fold change (treated / control) (protein STRBP_HUMAN (Q96SI9)): 0.6608
- Fold change (treated / control) (protein SUOX_HUMAN (P51687)): 0.6055
- Fold change (treated / control) (protein TF3C1_HUMAN (Q12789)): 0.6535
- Fold change (treated / control) (protein TF3C5_HUMAN (Q9Y5Q8)): 0.6483
- Fold change (treated / control) (protein TIM8B_HUMAN (Q9Y5J9)): 0.3123
- Fold change (treated / control) (protein UBL5_HUMAN (Q9BZL1)): 0.5618
- Fold change (treated / control) (protein UCRI_HUMAN (P47985)): 0.5774
- Fold change (treated / control) (protein UTP18_HUMAN (Q9Y5J1)): 0.63
- Fold change (treated / control) (protein VIGLN_HUMAN (Q00341)): 0.6343
- Fold change (treated / control) (protein XRN2_HUMAN (Q9H0D6)): 0.664
- Fold change (treated / control) (protein YBOX1_HUMAN (P67809)): 0.6605
- Fold change (treated / control) (protein ZN326_HUMAN (Q5BKZ1)): 0.6081
- Fold change (treated / control) (protein ZN428_HUMAN (Q96B54)): 0.5792
- Fold change (treated / control) (protein ZN595_HUMAN (Q8IYB9)): 0.6231
